# Data published in US6368788B1 (priority 1987, dated 2002).
# Like-named read-outs stand apart in the source and are kept apart here.
# Tests used:
# [1] = system: influenza; test: Influenza prophylaxis: incidence of acute respiratory diseases and influenza illness; assay type: in vivo, human
# Method: A group of 452 persons were treated with daily dosages of 100 μg of L-Glu-L-Trp administered im on each of 5-10 consecutive days. A control group consisted of 250 untreated persons. The incidence of diagnosed respiratory diseases and influenza were recorded for both groups over the next four months.
# [2] = system: Influenza A; conditions: Combined Therapy: Conventional + L-Glu-L-Trp
# Method: A clinical trial was conducted in a group of 588 patients between the ages of 17-21 years all having a confirmed infection with Influenza A, (i.e., confirmation by either hemagglutination-inhibition or the presence of specific viral antigens).
# [3] = system: Dengue virus; test: Hemorrhagic Dengue Fever Protocol A; assay type: in vivo, human
# Method: L-Glu-L-Trp was administered to 21 patients with hemorrhagic Dengue Fever, and 28 patients receiving conventional therapy served as controls. L-Glu-L-Trp was administered im single daily doses of 100 μg on each of 5 consecutive days as an adjunct to ongoing conventional therapy. […] The investigators also observed that L-Glu-L-Trp treated patients experienced a reduction in muscle and bone pain. Immunological indices in peripheral blood were also normalized.
# Forty nine patients (20-30 years of age; Kinh nationality) with diagnosed Dengue Fever were entered into the trial. The patients were referred to the 175th Military Hospital in Ho Chi Minh City at the time of an epidemic of Dengue fever in the South […] Republic of Vietnam. Diagnosis was based on the criteria recommended by the World Health Organization (1986) using medical histories, and clinical and laboratory data. Serological analyses were conducted at the Arbovirus Infectious Diseases Laboratory of the Pasteur Institute in Ho Chi Minh City. […] Dyspeptic toxicosis, i.e., nausea and vomiting were rarely encountered (15% and 11.7%, respectively). Joint and muscle pains were pronounced, most commonly involving the spinal joints in the lumbar region (96.6%), joints of the pelvic girdle (82.2%), the ulnar joints (53.4%), as well as, the muscles of the lumbar (69%) and abdominal regions (69%). Exanthema (40.7%) and lymphadenopathy (46.7%) were evident in certain patients. […] Leukocytes during peak episodes of disease were recorded to be 4.60±0.17×10^9/L, and the absolute number of lymphocytes varied widely from 0.95 to 4.29×10^9/L.
# Group 1 received conventional maintenance therapy consisting of detoxifying preparations and methods, e.g., fluids, fever control agents and the like. Group 2 received combination therapy, i.e., maintenance therapy and L-Glu-L-Trp, but only during periods of acute disease activity. L-Glu-L-Trp was administered at a dosage of 500 μg. The efficacy of the respective treatment protocols was evaluated by recording the most frequently used clinical indicia of Dengue disease activity: namely, the clinical indicia recorded in TABLE 45.
# [4] = system: Shigella dysenterae; test: Shigella dysentery; parameters: species or system human; conditions: in vivo
# Excerpt: A total 125 patients infected with Shigella dysentery were examined. Fifty-three patients constituted the control group.
# [5] = system: Staphylococci
# [6] = system: Herpes vulgaris; conditions: in combination with interferon; 7-10 outbreaks per year before
# [7] = Combination L-Glu-L-Trp Therapy (n = 21)
# [8] = Following Stage 2, Abscess and indurative acne
# [9] = Following Stage 2, Chronic abscess pyoderma
# [10] = Following Stage 2, Papular-pustular acne
substance,measurement,setting,value
L-Glu-L-Trp,Average term of hospitalization,[1]; L-Glu-L-Trp group,6.2 days
same,"Incidence of lingering and complicated cases for in-patients, %",[1]; L-Glu-L-Trp group,9.8%
same,"Need for hospitalization, %",[1]; L-Glu-L-Trp group,30.6%
same,Number of cases of temporary disablement per 100 persons/month,[1]; L-Glu-L-Trp group,4.1
same,Number of days of temporary disablement per 100 persons/month,[1]; L-Glu-L-Trp group,26.5
same,"Overall incidence of lingering and complicated cases, %",[1]; L-Glu-L-Trp group,3.9%
same,Pneumonia rate/100 persons/month,[1]; L-Glu-L-Trp group,0.20
same,Sickness rate per 100 persons/month,[1]; L-Glu-L-Trp group,9.8
same,"Average term of hospitalization, Ratio Control/TX",[1]; in vivo,1.4
same,"Cases of temporary disablement, Ratio Control/TX",[1]; in vivo,1.7
same,"Days of temporary disablement, Ratio Control/TX",[1]; in vivo,2.2
same,"Incidence of lingering and complicated cases for in-patients, Ratio Control/TX",[1]; in vivo,2.7
same,"Need for hospitalization, Ratio Control/TX",[1]; in vivo,1.7
same,"Overall incidence of lingering and complicated cases, Ratio Control/TX",[1]; in vivo,3.5
same,"Pneumonia rate, Ratio Control/TX",[1]; in vivo,2.5
same,"Sickness rate, Ratio Control/TX",[1]; in vivo,3.1
same,Increase in T-helper Cells Percentage,[2],17%
same,Length of Required Therapy,[2],7.1 ± 0.3 days
same,Pharyngitis manifestations,[2],3.6 ± 0.3 days
same,Secondary (Pneumonia) Complications,[2],4.0%
same,T-helper/T-suppressor Ratio,[2],2.7
same,Tracheitis manifestations,[2],3.6 ± 0.3 days
same,Duration of Symptom: Eye muscle pain,[3]; [7],6.6 ± 0.8 h
same,"Duration of Symptom: Fever, At day 2-4 of illness",[3]; [7],4.7 ± 0.2 h
same,"Duration of Symptom: Fever, At day 2-6 of illness",[3]; [7],5.2 ± 0.3 h
same,Duration of Symptom: Headache,[3]; [7],8.1 ± 0.9 h
same,Duration of Symptom: Hepatomegally,[3]; [7],11.3 ± 0.8 h
same,Duration of Symptom: Insomnia,[3]; [7],7.1 ± 0.7 h
same,Duration of Symptom: Joint pain,[3]; [7],7.4 ± 0.7 h
same,Duration of Symptom: Loss of appetite,[3]; [7],7.5 ± 0.8 h
same,Duration of Symptom: Lumbar pain,[3]; [7],8.7 ± 0.7 h
same,Duration of Symptom: Skeletal muscle pain,[3]; [7],7.7 ± 1.1 h
same,Duration of Symptom: Splenomegally,[3]; [7],9.6 ± 0.7 h
same,Duration of Symptom: Waist/Pelvic girdle pain,[3]; [7],8.1 ± 0.8 h
same,Duration of Symptom: Weakness,[3]; [7],9.3 ± 0.8 h
same,Clinical outcome,[3]; in vivo,"decrease in fever, reduction of toxic symptoms"
same,Clinical outcome,[4],"normalization of fever, reduction of toxemia"
same,"Blast Transformation, Con-A",[5]; After L-Glu-L-Trp Therapy,58.3 ± 3.9%
same,"Blast Transformation, HSA",[5]; After L-Glu-L-Trp Therapy,84.9 ± 5.5%
same,"Blast Transformation, PHA",[5]; After L-Glu-L-Trp Therapy,40.2 ± 3.9%
same,Number of Patients with Clinical Result: Improved,[5]; [8],1
same,Number of Patients with Clinical Result: Recovered,[5]; [8],4
same,Number of Patients with Clinical Result: Significantly Improved,[5]; [8],1
same,Number of Patients with Clinical Result: Recovered,[5]; [9],5
same,Number of Patients with Clinical Result: Significantly Improved,[5]; [9],2
same,Number of Patients with Clinical Result: Recovered,"[5]; Following Stage 2, Chronic furunculitis",10
same,Number of Patients with Clinical Result: Recovered,"[5]; Following Stage 2, Chronic relapsing folliculitis gravis",1
same,Number of Patients with Clinical Result: Recovered,"[5]; Following Stage 2, Chronic relapsing osteofolliculitis",3
same,Number of Patients with Clinical Result: Significantly Improved,"[5]; Following Stage 2, Chronic ulcerative pyoderma",2
same,Number of Patients with Clinical Result: Recovered,[5]; [10],4
same,Number of Patients with Clinical Result: Significantly Improved,[5]; [10],3
same,Number of Patients with Clinical Result: Improved,"[5]; Following Stage 2, Totals",1
same,Number of Patients with Clinical Result: No Effect,"[5]; Following Stage 2, Totals",0
same,Number of Patients with Clinical Result: Recovered,"[5]; Following Stage 2, Totals",27
same,Number of Patients with Clinical Result: Significantly Improved,"[5]; Following Stage 2, Totals",8
same,Number of Patients with Clinical Result: Worse,"[5]; Following Stage 2, Totals",0
same,B-Lymphocytes,[5]; L-Glu-L-Trp Treatment (n = 36),0.28 ± 0.04 ×10^9/L
same,B-Lymphocytes % Normal Value,[5]; L-Glu-L-Trp Treatment (n = 36),(57%)
same,B-Lymphocytes (%),[5]; L-Glu-L-Trp Treatment (n = 36),12.1 ± 1.5%
same,C3,[5]; L-Glu-L-Trp Treatment (n = 36),0.77 ± 0.02 g/L
same,"C3, % Normal Value",[5]; L-Glu-L-Trp Treatment (n = 36),(92%)
same,Erythrocyte Sed. Rate,[5]; L-Glu-L-Trp Treatment (n = 36),1.2 ± 1.4 mm
same,IgA,[5]; L-Glu-L-Trp Treatment (n = 36),2.40 ± 0.18 g/L
same,IgA % Normal Value,[5]; L-Glu-L-Trp Treatment (n = 36),(126%)
same,IgG,[5]; L-Glu-L-Trp Treatment (n = 36),15.5 ± 0.73 g/L
same,IgG % Normal Value,[5]; L-Glu-L-Trp Treatment (n = 36),(135%)
same,IgM,[5]; L-Glu-L-Trp Treatment (n = 36),1.25 ± 0.12 g/L
same,IgM % Normal Value,[5]; L-Glu-L-Trp Treatment (n = 36),(109%)
same,Imm. Cmplx.,[5]; L-Glu-L-Trp Treatment (n = 36),45.9 ± 4.9 Units
same,Leukocytes,[5]; L-Glu-L-Trp Treatment (n = 36),7.75 ± 0.33 ×10^9/L
same,Leukocytes % Normal Value,[5]; L-Glu-L-Trp Treatment (n = 36),(115%)
same,Lymphocytes,[5]; L-Glu-L-Trp Treatment (n = 36),2.41 ± 0.14 ×10^9/L
same,Lymphocytes % Normal Value,[5]; L-Glu-L-Trp Treatment (n = 36),(120%)
same,"Lymphocytes, %",[5]; L-Glu-L-Trp Treatment (n = 36),30.8 ± 1.4%
same,Monocytes,[5]; L-Glu-L-Trp Treatment (n = 36),0.43 ± 0.04 ×10^9/L
same,"Monocytes, %",[5]; L-Glu-L-Trp Treatment (n = 36),5.65 ± 0.40%
same,"Monocytes, % Normal Value",[5]; L-Glu-L-Trp Treatment (n = 36),(78%)
same,NK activity,[5]; L-Glu-L-Trp Treatment (n = 36),45.18 ± 2.55 % cytotox.
same,Neutrophils,[5]; L-Glu-L-Trp Treatment (n = 36),4.54 ± 0.25 10^9/L
same,"Neutrophils, %",[5]; L-Glu-L-Trp Treatment (n = 36),59.8 ± 1.5%
same,"Neutrophils, % Normal Value",[5]; L-Glu-L-Trp Treatment (n = 36),(103%)
same,Phag. Index,[5]; L-Glu-L-Trp Treatment (n = 36),5.31 ± 0.20
same,Phagocytic Cells,[5]; L-Glu-L-Trp Treatment (n = 36),2.36 ± 0.27 ×10^9/L
same,"Phagocytic Cells, % Normal Value",[5]; L-Glu-L-Trp Treatment (n = 36),(89%)
same,Surface Ig + B-Lym,[5]; L-Glu-L-Trp Treatment (n = 36),0.34 ± 0.05 ×10^9/L
same,"Surface Ig + B-Lym, %",[5]; L-Glu-L-Trp Treatment (n = 36),16.9 ± 1.7%
same,"Surface Ig + B-Lym, % Normal Value",[5]; L-Glu-L-Trp Treatment (n = 36),(117%)
same,T4^+/T8^+ Ratio,[5]; L-Glu-L-Trp Treatment (n = 36),1.32 ± 0.11
same,T-Lymphocytes,[5]; L-Glu-L-Trp Treatment (n = 36),1.68 ± 0.12 ×10^9/L
same,T-Lymphocytes % Normal Value,[5]; L-Glu-L-Trp Treatment (n = 36),(99%)
same,T-Lymphocytes (%),[5]; L-Glu-L-Trp Treatment (n = 36),69.3 ± 1.9 %
same,T-helper % Normal Value,[5]; L-Glu-L-Trp Treatment (n = 36),(71%)
same,T-helper (OKT4+),[5]; L-Glu-L-Trp Treatment (n = 36),0.46 ± 0.05 ×10^9/L
same,T-helper (OKT4+) %,[5]; L-Glu-L-Trp Treatment (n = 36),20.3 ± 2.9%
same,T-suppressor % Normal Value,[5]; L-Glu-L-Trp Treatment (n = 36),(95%)
same,T-suppressor (OKT8+),[5]; L-Glu-L-Trp Treatment (n = 36),0.39 ± 0.04 ×10^9/L
same,T-suppressor (OKT8+) %,[5]; L-Glu-L-Trp Treatment (n = 36),17.1 ± 1.9%
same,"T-lymphocytes, T4+ lymphocytes, T4+/T8+ ratio and NK activity relative to normal healthy volunteers",[5]; after treatment,> 70%
same,Patients with considerable (significant) improvement,[5]; combination therapy,8
same,Patients with improvement,[5]; combination therapy,1
same,Patients with clinical (complete) recovery,"[5]; combination therapy, 36 patients",27
same,Surface IgG+ lymphocytes,[5]; following Stage 2,0.19±0.023 ×10^9/L
same,Patients with clinically manifested increased antibiotic sensitivity in vivo,[5]; in vivo,55-75%
same,"Clinical recovery, papulous pustular acne",[5]; of 7 patients,4
same,"Complete clinical recovery, chronic abscessing pyoderma",[5]; of 7 patients,5
same,"Clinical recovery, abscessing and indurative acne",[5]; of 10 patients,6
same,Outbreaks after treatment,[6],less than one outbreak per year
